Laboratory results: ChEMBL document CHEMBL1201862, “PubChem BioAssay data set” (2004)
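Results reflect a 48-hour exposure of cells in 96-well plates to compound at five concentrations. GI50: concentration for 50% inhibition of growth.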 Calls of active or inactive are those of the source. Cut-off read from the data, not from the text of the source: active = GI50 up to about 1.1 µM and inactive = higher.

Assays:
Assay in all cases: inhibition of tumour cell growth, NCI panel, 48 h
ACHN = system: ACHN
COLO 205 = system: COLO 205
EKVX = system: EKVX
HOP-62 = system: HOP-62
IGROV-1 = system: IGROV-1
NCI-H460 = system: NCI-H460
OVCAR-4 = system: OVCAR-4
SF-268 = system: SF-268
SK-OV-3 = system: SK-OV-3
SNB-75 = system: SNB-75
SW-620 = system: SW-620
TK-10 = system: TK-10
U-251 = system: U-251
UO-31 = system: UO-31
OVCAR-5 = system: OVCAR-5
SNB-19 = system: SNB-19
HOP-92 = system: HOP-92

| SMILES | GI50 (ACHN) | GI50 (COLO 205) | GI50 (EKVX) | GI50 (HOP-62) | GI50 (IGROV-1) | GI50 (NCI-H460) | GI50 (OVCAR-4) | GI50 (SF-268) | GI50 (SK-OV-3) | GI50 (SNB-75) | GI50 (SW-620) | GI50 (TK-10) | GI50 (U-251) | GI50 (UO-31) | GI50 (OVCAR-5) | GI50 (SNB-19) | GI50 (HOP-92) |
| --- | --- | --- | --- | --- | --- | --- | --- | --- | --- | --- | --- | --- | --- | --- | --- | --- | --- |
| COc1ccc(/C=C2\CCCCC2=O)cc1 | > 100 µM (inactive) | > 100 µM (inactive) | > 100 µM (inactive) | > 100 µM (inactive) | > 100 µM (inactive) | > 100 µM (inactive) | > 100 µM (inactive) | > 100 µM (inactive) | > 100 µM (inactive) | 41.8 µM (inactive) | > 100 µM (inactive) | > 100 µM (inactive) | > 100 µM (inactive) | > 100 µM (inactive) |  |  |  |
| C=CCn1c(=S)sc2c(C(=O)OCC)c3c(C)cc(C)cn3c2c1=O | > 100 µM (inactive) | > 100 µM (inactive) | > 100 µM (inactive) | > 100 µM (inactive) | > 100 µM (inactive) | > 100 µM (inactive) |  | 67.5 µM (inactive) | 90.8 µM (inactive) | 45.4 µM (inactive) | > 100 µM (inactive) | > 100 µM (inactive) | 75.9 µM (inactive) | > 100 µM (inactive) | > 100 µM (inactive) | > 100 µM (inactive) |  |
| O=[N+]([O-])c1cccc(C2=NN(c3ccccc3)C3c4ccccc4OCC23)c1 (stereo not given) | > 100 µM (inactive) | > 100 µM (inactive) | > 100 µM (inactive) | > 100 µM (inactive) | > 100 µM (inactive) | > 100 µM (inactive) |  | > 100 µM (inactive) | > 100 µM (inactive) | > 100 µM (inactive) | > 100 µM (inactive) | > 100 µM (inactive) | > 100 µM (inactive) | 6.71 µM (inactive) | > 100 µM (inactive) | > 100 µM (inactive) | 52.8 µM (inactive) |
| Cc1nc(NC(=S)NC(=O)c2ccc(Cl)c(Cl)c2)sc1C(=O)/C=C/c1ccccc1[N+](=O)[O-] | 24.4 µM (inactive) | 18.4 µM (inactive) | 32.7 µM (inactive) | 21.2 µM (inactive) | 24.5 µM (inactive) | 28.9 µM (inactive) | 26.8 µM (inactive) | 39.4 µM (inactive) | 15.6 µM (inactive) |  | 20.2 µM (inactive) | 36.1 µM (inactive) | 17.9 µM (inactive) | 20.8 µM (inactive) | > 10 µM (inactive) | 21.1 µM (inactive) | 0.989 µM (active) |
| CC(Cn1c2c3ccccc3ccc2c2oc(=O)c3ccccc3c21)N(C)C (stereo not given) | > 100 µM (inactive) | > 100 µM (inactive) | > 100 µM (inactive) |  | > 100 µM (inactive) | > 100 µM (inactive) | > 100 µM (inactive) | > 100 µM (inactive) |  | > 100 µM (inactive) | > 100 µM (inactive) | > 100 µM (inactive) | > 100 µM (inactive) | > 100 µM (inactive) | > 100 µM (inactive) | > 100 µM (inactive) | > 100 µM (inactive) |
| O=C1C(Br)=CC2(C=C1Br)CCNC1=C2C(=O)c2ccccc2C1=O | 14.1 µM (inactive) | 4.61 µM (inactive) | 38.5 µM (inactive) | 16 µM (inactive) | 18.5 µM (inactive) |  |  | 11.2 µM (inactive) | 30.4 µM (inactive) | > 100 µM (inactive) | 9.98 µM (inactive) | 33.3 µM (inactive) |  |  |  |  |  |
| Nc1ncnc2c1ncn2CCCC(c1ccccc1)P(=O)(O)O (stereo not given) | > 100 µM (inactive) | > 100 µM (inactive) | > 100 µM (inactive) |  | > 100 µM (inactive) | > 100 µM (inactive) |  | > 100 µM (inactive) | > 100 µM (inactive) | > 100 µM (inactive) | > 100 µM (inactive) | > 100 µM (inactive) | > 100 µM (inactive) | > 100 µM (inactive) | > 100 µM (inactive) | > 100 µM (inactive) |  |
